Laboratory results: PMC8041751, “Structural basis for an exceptionally strong preference for asparagine residue at the S2 subsite of Stenotrophomonas maltophilia dipeptidyl peptidase 7” (Scientific Reports, 2021)
Residues, ends and D or L forms follow the SMILES beside them.

Key:
PgDPP11 = PgDPP11 (Porphyromonas gingivalis, UniProt B2RID1); assay: biochemical
Procedure: Figure 2 Correlation diagrams between the hydrophobicity index (H.I.) of P2-amino acid and residual DPP activities of S46 peptidases. (a) SmDPP7. The outlier dipeptides Asn-Tyr and Trp-Tyr are coloured in red and blue, respectively (see text). (b) PgDPP7. Tyr-Tyr-MCA hydrolysis of PgDPP7 was inhibited by Xaa-Tyr dipeptide. Residual activity was measured under conditions where 200 µM dipeptides and 200 µM Tyr-Tyr-MCA were added into the reaction solution. (c) DPP11 from S. maltophilia (SmDPP11). (d) PgDPP11. For DPP11s, Leu-Asp-MCA hydrolysis was inhibited by Xaa-Asp dipeptide. Residual activity was measured under conditions where 100 µM dipeptides and 100 µM Leu-Asp-MCA were added into the reaction solution. The hydrophobicity indices of the amino acids were adopted from Sereda et al., 1994 and Mohera et al. 1995[25],[26]. R is the correlation coefficient. The standard deviations were obtained from three independent experiments.
(§1) The dipeptide library was purchased from AnaSpec (Fremont, CA, US). Ile-Tyr and Arg-Tyr were synthesized by Eurofins Genomics (Tokyo, Japan). Cys-Tyr and Cys-Asp could not be purchased commercially. Different concentrations (3.13, 6.25, 12.5, 25, 50, 100, and 200 µM) of dipeptides as the inhibitor and 200 µM Tyr-Tyr-MCA (GenScript, NJ, US) as the substrate for DPP7 were added into a reaction buffer consisting of 50 mM sodium phosphate buffer pH 7.0, 5 mM EDTA and 0.005% Tween 20. For DPP11s, different concentrations (1.56, 3.13, 6.25, 12.5, 25, 50, and 100 µM) of dipeptides as the inhibitor and 100 µM Leu-Asp-MCA (Peptide Institute, Osaka, Japan) as the substrate were used. The enzyme reaction was performed at 298 K for 20 min and standard deviations were calculated from three independent experiments. Half-maximal inhibitory concentration (IC50) values were determined by fitting to a sigmoid curve (4-parameter logistic curve) using ImageJ software[35] and inhibition constants (Ki) were calculated using the Cheng-Prusoff Equation[36]. The fluorescence intensity of the released MCA was measured with the same method of determination of kinetics parameters toward dipeptidyl MCA.

[1] = of the amino acid; ref 25,26 (Sereda et al. and Mohera et al.); cited from earlier work
SmDPP7 = assay: Inhibition assay using dipeptide library, Tyr-Tyr-MCA hydrolysis; type: biochemical, Stenotrophomonas maltophilia; settings: Xaa-Tyr as competitive inhibitor; substrate 200 µM Tyr-Tyr-MCA; pH 7.0, 298 K; Ki from IC50 by Cheng-Prusoff
Procedure: Figure 1 Effect of Xaa-Tyr dipeptides on the hydrolytic activity of SmDPP7 towards synthetic substrate Tyr-Tyr-MCA. Inhibition assay was performed as described in “Materials and methods”. Residual activity was measured under conditions where 200 µM Xaa-Tyr dipeptide and 200 µM Tyr-Tyr-MCA, synthetic substrate were added into the reaction solution. […] The standard deviations were obtained from three independent experiments.
as §1

wild-type SmDPP7 = assay: Kinetic parameters toward dipeptidyl MCA; type: biochemical, Stenotrophomonas maltophilia; settings: pH 7.0, 298 K
Procedure: (§2) Kinetic parameters were determined by fitting the experimental data to the Michaelis–Menten equation using Excel Solver (Microsoft, WA, US) by nonlinear least-squares fitting with different concentrations of glycyl-L-tyrosyl-4-methylcoumaryl-7-amide (3.91, 7.81, 15.6, 31.3, 62.5, 125, 250, and 500 µM; Gly-Tyr-MCA; GenScript, NJ, US), L-tyrosyl-L-tyrosyl-4-methylcoumaryl-7-amide (1.56, 3.13, 6.25, 12.5, 25, 50, 100, and 200 µM; Tyr-Tyr-MCA; GenScript, NJ, US), L-asparaginyl-L-tyrosyl-4-methylcoumaryl-7-amide (1.56, 3.13, 6.25, 12.5, 25, 50, 100, and 200 µM; Asn-Tyr-MCA; GenScript, NJ, US), and L-leucinyl-L-asparaginic acid-4-methylcoumaryl-7-amide (0.781, 1.56, 3.13, 6.25, 12.5, 25, 50, and 100 µM; Leu-Asp-MCA; Peptide Institute, Osaka, Japan) as a substrate. The enzyme reaction was performed in a reaction buffer consisting of 50 mM sodium phosphate buffer pH 7.0, 5 mM EDTA, and 0.005% Tween 20 at 298 K for 20 min and standard deviations were calculated from three independent experiments. […] For SmDPP7 (wild-type and mutants), concentrations of the purified enzymes were 10, 2, and 2 nM for the hydrolyses of Gly-Tyr-MCA, Tyr-Tyr-MCA, and Asn-Tyr-MCA, respectively. Concentration of purified PgDPP7 used for determining kinetic parameters of Tyr-Tyr-MCA hydrolysis was 25 nM. For SmDPP11 and PgDPP11, concentrations of the purified enzymes used for determining kinetic parameters of Leu-Asp-MCA hydrolysis were 0.5 nM and 1 nM, respectively. The fluorescence intensity of the released MCA was measured with excitation at 355 nm and emission at 460 nm using an Infinite 200 PRO microplate reader (Tecan, Switzerland).

SmDPP7 R218Q mutant = assay: Kinetic parameters toward dipeptidyl MCA; type: biochemical, Stenotrophomonas maltophilia
SmDPP7 T220A mutant = assay: Kinetic parameters toward dipeptidyl MCA; type: biochemical, Stenotrophomonas maltophilia
Procedure: (§3) To test the roles of the residues located in the S2 subsite for P2 residue recognition by SmDPP7, we replaced the following residues with alanine and analysed the enzymatic activities of the mutant enzymes on synthetic substrates, Gly-Tyr-MCA, Tyr-Tyr-MCA, and Asn-Tyr-MCA (Table 2). The mutated residues and their estimated roles were: Lys206, Arg218, Thr220, and Phe671 for interaction with the P2 side chain.
as §2

SmDPP7 F671A mutant = assay: Kinetic parameters toward dipeptidyl MCA; type: biochemical, Stenotrophomonas maltophilia
Procedure: as §3, §2

SmDPP7 R218K mutant = assay: Kinetic parameters toward dipeptidyl MCA; type: biochemical, Stenotrophomonas maltophilia
Procedure: as §3, §2

SmDPP7 K206A mutant = assay: Kinetic parameters toward dipeptidyl MCA; type: biochemical, Stenotrophomonas maltophilia
Procedure: as §3, §2

SmDPP7 R218A mutant = assay: Kinetic parameters toward dipeptidyl MCA; type: biochemical, Stenotrophomonas maltophilia; set-up: key: “–” means not determined due to low activity
Procedure: as §3, §2

PgDPP11, sequence (B2RID1 22-720): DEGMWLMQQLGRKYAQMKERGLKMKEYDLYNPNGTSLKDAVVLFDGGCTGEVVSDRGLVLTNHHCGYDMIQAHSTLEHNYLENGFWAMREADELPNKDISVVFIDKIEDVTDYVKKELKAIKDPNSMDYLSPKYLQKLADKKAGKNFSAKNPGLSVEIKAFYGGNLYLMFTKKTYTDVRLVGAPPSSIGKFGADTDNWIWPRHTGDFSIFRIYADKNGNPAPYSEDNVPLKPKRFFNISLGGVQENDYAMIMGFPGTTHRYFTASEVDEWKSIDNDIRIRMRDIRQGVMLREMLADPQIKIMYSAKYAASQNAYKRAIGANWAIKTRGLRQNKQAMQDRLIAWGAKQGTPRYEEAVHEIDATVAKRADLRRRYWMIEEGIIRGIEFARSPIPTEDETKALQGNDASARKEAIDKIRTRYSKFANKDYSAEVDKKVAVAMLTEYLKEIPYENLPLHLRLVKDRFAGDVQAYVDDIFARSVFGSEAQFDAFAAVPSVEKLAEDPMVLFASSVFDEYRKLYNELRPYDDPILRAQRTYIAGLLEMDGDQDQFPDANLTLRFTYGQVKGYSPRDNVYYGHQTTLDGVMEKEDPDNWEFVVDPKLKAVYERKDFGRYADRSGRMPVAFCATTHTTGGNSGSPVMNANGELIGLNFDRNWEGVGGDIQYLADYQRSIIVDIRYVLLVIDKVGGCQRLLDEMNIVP

Compound: C[C@H](N)C(=O)N[C@@H](CC(=O)O)C(=O)O [Ala-Asp] (H-Ala-Asp-OH)
- Ki (PgDPP11): > 5.11 µM

Compound: C[C@H](N)C(=O)O [Ala]
- H.I. of P2 aa (hydrophobicity index) [1]: 41

Compound: N=C(N)NCCC[C@H](N)C(=O)N[C@@H](CC(=O)O)C(=O)O [Arg-Asp] (H-Arg-Asp-OH)
- Ki (PgDPP11): > 5.11 µM

Compound: NC(=O)C[C@H](N)C(=O)N[C@@H](CC(=O)O)C(=O)O [Asn-Asp] (H-Asn-Asp-OH)
- Ki (PgDPP11): 4.06 ± 0.16 µM

Compound: N[C@@H](CC(=O)O)C(=O)N[C@@H](CC(=O)O)C(=O)O [Asp-Asp] (H-Asp-Asp-OH)
- Ki (PgDPP11): > 5.11 µM

Compound: NC(=O)CC[C@H](N)C(=O)N[C@@H](CC(=O)O)C(=O)O [Gln-Asp] (H-Gln-Asp-OH)
- Ki (PgDPP11): > 5.11 µM

Compound: N[C@@H](CCC(=O)O)C(=O)N[C@@H](CC(=O)O)C(=O)O [Glu-Asp] (H-Glu-Asp-OH)
- Ki (PgDPP11): > 5.11 µM

Compound: NCC(=O)N[C@@H](CC(=O)O)C(=O)O [Gly-Asp] (H-Gly-Asp-OH)
- Ki (PgDPP11): > 5.11 µM

Compound: N[C@@H](Cc1c[nH]cn1)C(=O)N[C@@H](CC(=O)O)C(=O)O [His-Asp] (H-His-Asp-OH)
- Ki (PgDPP11): > 5.11 µM

Compound: N[C@@H](Cc1c[nH]cn1)C(=O)O [His]
- H.I. of P2 aa (hydrophobicity index) [1]: 8

Compound: CC[C@H](C)[C@H](N)C(=O)N[C@@H](CC(=O)O)C(=O)O [Ile-Asp] (H-Ile-Asp-OH)
- Ki (PgDPP11): > 5.11 µM

Compound: CC[C@H](C)[C@H](N)C(=O)O [Ile]
- H.I. of P2 aa (hydrophobicity index) [1]: 99

Compound: CC(C)C[C@H](N)C(=O)N[C@@H](CC(=O)O)C(=O)O [Leu-Asp] (H-Leu-Asp-OH)
- Ki (PgDPP11): 3.35 ± 0.23 µM

Compound: NCCCC[C@H](N)C(=O)N[C@@H](CC(=O)O)C(=O)O [Lys-Asp] (H-Lys-Asp-OH)
- Ki (PgDPP11): > 5.11 µM

Compound: CSCC[C@H](N)C(=O)N[C@@H](CC(=O)O)C(=O)O [Met-Asp] (H-Met-Asp-OH)
- Ki (PgDPP11): > 5.11 µM

Compound: CSCC[C@H](N)C(=O)O [Met]
- H.I. of P2 aa (hydrophobicity index) [1]: 74

Compound: N[C@@H](Cc1ccccc1)C(=O)N[C@@H](CC(=O)O)C(=O)O [Phe-Asp] (H-Phe-Asp-OH)
- Ki (PgDPP11): 5.11 ± 0.06 µM

Compound: N[C@@H](Cc1ccccc1)C(=O)O [Phe]
- H.I. of P2 aa (hydrophobicity index) [1]: 100

Compound: O=C(O)C[C@H](NC(=O)[C@@H]1CCCN1)C(=O)O [Pro-Asp] (H-Pro-Asp-OH)
- Ki (PgDPP11): > 5.11 µM

Compound: N[C@@H](CO)C(=O)N[C@@H](CC(=O)O)C(=O)O [Ser-Asp] (H-Ser-Asp-OH)
- Ki (PgDPP11): > 5.11 µM

Compound: C[C@@H](O)[C@H](N)C(=O)N[C@@H](CC(=O)O)C(=O)O [Thr-Asp] (H-Thr-Asp-OH)
- Ki (PgDPP11): > 5.11 µM

Compound: N[C@@H](Cc1c[nH]c2ccccc12)C(=O)N[C@@H](CC(=O)O)C(=O)O [Trp-Asp] (H-Trp-Asp-OH)
- Ki (PgDPP11): 1.36 ± 0.06 µM

Compound: N[C@@H](Cc1c[nH]c2ccccc12)C(=O)O [Trp]
- H.I. of P2 aa (hydrophobicity index) [1]: 97

Compound: N[C@@H](Cc1ccc(O)cc1)C(=O)N[C@@H](CC(=O)O)C(=O)O [Tyr-Asp] (H-Tyr-Asp-OH)
- Ki (PgDPP11): > 5.11 µM

Compound: N[C@@H](Cc1ccc(O)cc1)C(=O)O [Tyr]
- H.I. of P2 aa (hydrophobicity index) [1]: 63

Compound: CC(C)[C@H](N)C(=O)N[C@@H](CC(=O)O)C(=O)O [Val-Asp]
- Ki (PgDPP11): > 5.11 µM

Compound: CC(C)[C@H](N)C(=O)O [Val]
- H.I. of P2 aa (hydrophobicity index) [1]: 76

Compound: Ala-Tyr
- Ki (SmDPP7): > 58 µM

Compound: Asp-Tyr
- Ki (SmDPP7): > 58 µM

Compound: Glu-Tyr
- Ki (SmDPP7): > 58 µM

Compound: Gly-Tyr
- Ki (SmDPP7): > 58 µM

Compound: His-Tyr
- Ki (SmDPP7): > 58 µM

Compound: L-asparaginyl-L-tyrosyl-4-methylcoumaryl-7-amide [Asn-Tyr-MCA]
- Km (wild-type SmDPP7): 51.3 ± 1.6 µM
- kcat (wild-type SmDPP7): 3.67 ± 0.12 s⁻¹
- Km (SmDPP7 R218Q mutant): 390 ± 14 µM
- kcat (SmDPP7 R218Q mutant): 0.198 ± 0.006 s⁻¹
- Km (SmDPP7 T220A mutant): 66.6 ± 1.5 µM
- kcat (SmDPP7 T220A mutant): 2.60 ± 0.04 s⁻¹
- Km (SmDPP7 F671A mutant): 17.4 ± 1.4 µM
- kcat (SmDPP7 F671A mutant): 0.230 ± 0.012 s⁻¹
- Km (SmDPP7 R218K mutant): 277 ± 6 µM
- kcat (SmDPP7 R218K mutant): 0.183 ± 0.008 s⁻¹
- Km (SmDPP7 K206A mutant): 54.1 ± 2.1 µM
- kcat (SmDPP7 K206A mutant): 3.47 ± 0.02 s⁻¹
- Km (SmDPP7 R218A mutant): –
- kcat (SmDPP7 R218A mutant): –
- kcat/Km (SmDPP7 R218A mutant): –

Compound: L-tyrosyl-L-tyrosyl-4-methylcoumaryl-7-amide [Tyr-Tyr-MCA]
- Km (wild-type SmDPP7): 81.7 ± 3.4 µM
- kcat (wild-type SmDPP7): 3.83 ± 0.09 s⁻¹
- Km (SmDPP7 R218Q mutant): 275 ± 11 µM
- kcat (SmDPP7 R218Q mutant): 0.0403 ± 0.0004 s⁻¹
- Km (SmDPP7 T220A mutant): 46.4 ± 2.4 µM
- kcat (SmDPP7 T220A mutant): 1.82 ± 0.07 s⁻¹
- Km (SmDPP7 F671A mutant): 463 ± 88 µM
- kcat (SmDPP7 F671A mutant): 1.54 ± 0.18 s⁻¹
- Km (SmDPP7 R218K mutant): 251 ± 6 µM
- kcat (SmDPP7 R218K mutant): 0.240 ± 0.003 s⁻¹
- Km (SmDPP7 K206A mutant): 55.8 ± 1.5 µM
- kcat (SmDPP7 K206A mutant): 3.52 ± 0.04 s⁻¹
- Km (SmDPP7 R218A mutant): –
- kcat (SmDPP7 R218A mutant): –
- kcat/Km (SmDPP7 R218A mutant): –

Compound: Pro-Tyr
- Ki (SmDPP7): > 58 µM

Compound: Ser-Tyr
- Ki (SmDPP7): > 58 µM

Compound: glycyl-L-tyrosyl-4-methylcoumaryl-7-amide [Gly-Tyr-MCA]
- Km (wild-type SmDPP7): 183 ± 4 µM
- kcat (wild-type SmDPP7): 0.702 ± 0.022 s⁻¹
- Km (SmDPP7 R218Q mutant): 717 ± 63 µM
- kcat (SmDPP7 R218Q mutant): 0.0365 ± 0.0018 s⁻¹
- Km (SmDPP7 T220A mutant): 215 ± 10 µM
- kcat (SmDPP7 T220A mutant): 0.454 ± 0.010 s⁻¹
- Km (SmDPP7 F671A mutant): 688 ± 38 µM
- kcat (SmDPP7 F671A mutant): 0.191 ± 0.009 s⁻¹
- Km (SmDPP7 R218K mutant): 586 ± 40 µM
- kcat (SmDPP7 R218K mutant): 0.0238 ± 0.0011 s⁻¹
- Km (SmDPP7 K206A mutant): 201 ± 10 µM
- kcat (SmDPP7 K206A mutant): 0.751 ± 0.015 s⁻¹
- Km (SmDPP7 R218A mutant): –
- kcat (SmDPP7 R218A mutant): –
- kcat/Km (SmDPP7 R218A mutant): –
